Source: patent US20250163066A1, “PROTACs of MALT1” (TEGID THERAPEUTICS, INC., priority 2022, published 2025)

How the values were obtained:
MALT1 [1] = target: T1, MALT1 (Homo sapiens (Human), UniProt Q9UDY8); experiment: MALT1 enzymatic activity inhibition (fluorescence, Ac-LRSR-AMC substrate); assay type: biochemical; conditions: recombinant MALT1 1.5 ng/μl, Ac-LRSR-AMC 1 μM
How it was run: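 Recombinant human MALT1 (1.5 ng/μl final) preincubated 10 min at rt with compounds in 50 mM HEPES pH 7.2-7.4, 100 mM NaCl, 900 mM sodium citrate, 10 mM DTT; 1 μM Ac-LRSR-AMC then added. AMC fluorescence read at start and after 30 min 37 °C plus 30 min rt; difference gives signal, % inhibition fitted to IC50.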

MALT1 [2] = target: T1, MALT1; experiment: MALT1 degradation in JeKo-1 cells (capillary Western blotting); assay type: cell-based; conditions: 48 h incubation, read-out: EC50 for MALT1 degradation
Experimental: JeKo-1 cells (ATCC, USA) were cultured in RPMI 1640 supplemented with 10% FBS at 37° C., 5% CO2 in a humidified cell culture incubator. 1 ml of cells (1*10^6 cells per well) was transferred to each well of a 24-well plate (Greiner, #662160). Then 40 μl/well 25× compound (or DMSO) were added. Cells were incubated with compound in a humidified cell culture incubator for 48 h. At the end of incubation, cell suspension was transferred from wells into 2 ml tubes (Greiner, #623201), centrifuged at 300 g for 5 min and the supernatant was discarded. Then cell pellets were washed with cooled PBS. Cell lysates were prepared by adding 40 μl of RIPA lysis buffer (ProteinSimple, #040-483) to the cell pellet. […] Next, protein concentration in cell lysates was determined by Pierce™ Coomassie (Bradford) Protein Assay Kit (Thermo Scientific, #23200) according to manufacturer's instructions.
Levels of MALT1, Bcl10 and CYLD proteins in prepared cell lysates were assessed in capillary Western blotting system Jess (JS-3030, ProteinSimple) using 12-230 kDa Separation Module (ProteinSimple #SM-W004), Anti-Mouse Detection Module (ProteinSimple #DM-002) and Anti-Rabbit Detection Module (ProteinSimple #DM-001) according to manufacturer's instructions. […] Beta-actin was used as a loading control detected by anti-beta-actin primary antibodies (RnD Systems, #MAB8929) at 1:100 dilution.

[3] = test system: IL-2 MALT1-dependent release in Jurkat cells; experiment: cells; assay type: cell-based; conditions: Homo sapiens; for CC50: Jurkat, 24 h, read-out: CC50 (IL-2 MALT1-dependent release inhibition)
How it was run: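 Jurkat cells (100,000/well, RPMI 1640 with 10% FBS, 37 °C, 5% CO2) were preincubated with compound or DMSO for 0.5-1 h, in duplicate. Stimulation used anti-CD3 (HIT3a) plus anti-CD28 antibodies for 24 h. IL-2 in supernatants was then measured by ELISA.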

T1 sequence (Q9UDY8 whole entry): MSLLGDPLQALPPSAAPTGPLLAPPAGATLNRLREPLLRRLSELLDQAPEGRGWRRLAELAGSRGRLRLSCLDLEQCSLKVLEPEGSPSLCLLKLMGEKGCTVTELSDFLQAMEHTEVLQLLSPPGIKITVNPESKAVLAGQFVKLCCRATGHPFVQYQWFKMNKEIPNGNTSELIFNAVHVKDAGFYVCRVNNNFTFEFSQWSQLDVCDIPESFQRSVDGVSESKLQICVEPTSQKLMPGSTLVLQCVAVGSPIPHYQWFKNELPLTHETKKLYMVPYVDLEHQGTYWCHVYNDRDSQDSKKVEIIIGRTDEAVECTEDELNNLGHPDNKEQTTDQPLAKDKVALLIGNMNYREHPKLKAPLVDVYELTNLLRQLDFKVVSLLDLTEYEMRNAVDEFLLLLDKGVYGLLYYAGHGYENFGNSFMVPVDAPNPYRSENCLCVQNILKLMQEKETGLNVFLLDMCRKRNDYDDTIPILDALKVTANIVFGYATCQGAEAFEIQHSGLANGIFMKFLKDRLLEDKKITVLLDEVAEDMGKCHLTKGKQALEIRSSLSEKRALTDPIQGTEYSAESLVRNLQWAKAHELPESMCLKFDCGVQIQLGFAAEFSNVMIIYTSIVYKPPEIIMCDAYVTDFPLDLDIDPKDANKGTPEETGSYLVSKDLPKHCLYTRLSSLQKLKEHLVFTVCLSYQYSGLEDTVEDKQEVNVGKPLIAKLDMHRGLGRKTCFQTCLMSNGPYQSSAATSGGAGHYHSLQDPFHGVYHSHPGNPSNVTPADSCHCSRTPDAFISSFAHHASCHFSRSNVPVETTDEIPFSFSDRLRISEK

Structure (SMILES) | EC50 (MALT1 [1]) | DC50 (MALT1 [2]) | EC50 ([3]; Jurkat cells stimulated with antiCD3/antiCD28 for 24 h, IL-2 ELISA, read-out: EC50, IL-2 MALT1-dependent release inhibition) | CC50 [3]
Cc1cc(NC(=O)Nc2cnc3ccnn3c2C2CCCO2)cnc1-c1noc(CCCCCC(=O)N2CCN(c3ccc4c(c3)CN(C3CCC(=O)NC3=O)C4=O)CC2)n1 (stereo not shown) [Compound 2, 1-[6-[5-[6-[4-[2-(2,6-dioxo-3-piperidyl)-1-oxo-isoindolin-5-yl]piperazin-1-yl]-6-oxo-hexyl]-1,2,4-oxadiazol-3-yl]-5-methyl-3-pyridyl]-3-(7-tetrahydrofuran-2-ylpyrazolo[1,5-a]pyrimidin-6-yl)urea] | ≤ 0.2 µM | 85 nM | 500 to 1000 nM | 
Cc1cc(NC(=O)Nc2cnc3ccnn3c2C2CCCCC2)cnc1-c1noc(CCCCCC(=O)Nc2ccc3c(c2)CN(C2CCC(=O)NC2=O)C3=O)n1 (stereo not shown) [Compound 109, 6-[3-[5-[(7-cyclohexylpyrazolo[1,5-a]pyrimidin-6-yl)carbamoylamino]-3-methyl-2-pyridyl]-1,2,4-oxadiazol-5-yl]-N-[2-(2,6-dioxo-3-piperidyl)-1-oxo-isoindolin-5-yl]hexanamide] | 0.2 to 0.5 µM |  |  | < 500 nM
CC(C)c1c(NC(=O)Nc2ccc(-c3nnc(CCCCCC(=O)N4CCN(c5ccc6c(c5)CN(C5CCC(=O)NC5=O)C6=O)CC4)o3)nc2)cnc2ccnn12 (stereo not shown) [Compound 110, 1-[6-[5-[6-[4-[2-(2,6-dioxo-3-piperidyl)-1-oxo-isoindolin-5-yl]piperazin-1-yl]-6-oxo-hexyl]-1,3,4-oxadiazol-2-yl]-3-pyridyl]-3-(7-isopropylpyrazolo[1,5-a]pyrimidin-6-yl)urea] | 1 to 5 µM |  |  | > 5000 nM
O=C1CCC(N2Cc3cc(N4CCN(C(=O)CCCCCc5nnc(-c6ccc(NC(=O)Nc7cnc8ccnn8c7C7CCCC7)cn6)o5)CC4)ccc3C2=O)C(=O)N1 (stereo not shown) [Compound 111, 1-(7-cyclopentylpyrazolo[1,5-a]pyrimidin-6-yl)-3-[6-[5-[6-[4-[2-(2,6-dioxo-3-piperidyl)-1-oxo-isoindolin-5-yl]piperazin-1-yl]-6-oxo-hexyl]-1,3,4-oxadiazol-2-yl]-3-pyridyl]urea] | 1 to 5 µM |  |  | > 5000 nM
Cc1cc(NC(=O)Nc2cnc3ccnn3c2C2CCC2)cnc1-c1noc(CCCCC(=O)N2CCN(c3ccc4c(c3)CN(C3CCC(=O)NC3=O)C4=O)CC2)n1 (stereo not shown) [Compound 112, 1-(7-cyclobutylpyrazolo[1,5-a]pyrimidin-6-yl)-3-[6-[5-[5-[4-[2-(2,6-dioxo-3-piperidyl)-1-oxo-isoindolin-5-yl]piperazin-1-yl]-5-oxo-pentyl]-1,2,4-oxadiazol-3-yl]-5-methyl-3-pyridyl]urea] | ≤ 0.2 µM |  |  | > 5000 nM
O=C1CCC(N2Cc3cc(N4CCN(C(=O)CCCCCc5nc(-c6ncc(NC(=O)Nc7cnc8ccnn8c7C7CCC7)cc6Cl)no5)CC4)ccc3C2=O)C(=O)N1 (stereo not shown) [Compound 116, 1-[5-chloro-6-[5-[6-[4-[2-(2,6-dioxo-3-piperidyl)-1-oxo-isoindolin-5-yl]piperazin-1-yl]-6-oxo-hexyl]-1,2,4-oxadiazol-3-yl]-3-pyridyl]-3-(7-cyclobutylpyrazolo[1,5-a]pyrimidin-6-yl)urea] | ≤ 0.2 µM |  |  | < 500 nM

The next lines start with results.

EC50 (MALT1 [1]) | DC50 (MALT1 [2]) | EC50 ([3]; Jurkat cells stimulated with antiCD3/antiCD28 for 24 h, IL-2 ELISA, read-out: EC50, IL-2 MALT1-dependent release inhibition) | Structure (SMILES) | CC50 [3]
≤ 0.2 µM |  |  | O=C1CCC(N2Cc3cc(N4CCN(C(=O)CCCCCc5nc(-c6ncc(NC(=O)Nc7cnc8ccnn8c7C7CCCCC7)cc6Cl)no5)CC4)ccc3C2=O)C(=O)N1 (stereo not shown) [Compound 118, 1-[5-chloro-6-[5-[6-[4-[2-(2,6-dioxo-3-piperidyl)-1-oxo-isoindolin-5-yl]piperazin-1-yl]-6-oxo-hexyl]-1,2,4-oxadiazol-3-yl]-3-pyridyl]-3-(7-cyclohexylpyrazolo[1,5-a]pyrimidin-6-yl)urea] | < 500 nM
≤ 0.2 µM |  |  | O=C1CCC(N2Cc3cc(N4CCN(CCCCCCc5nc(-c6ncc(NC(=O)Nc7cnc8ccnn8c7C7CCCCC7)cc6Cl)no5)CC4)ccc3C2=O)C(=O)N1 (stereo not shown) [Compound 119, 1-[5-chloro-6-[5-[6-[4-[2-(2,6-dioxo-3-piperidyl)-1-oxo-isoindolin-5-yl]piperazin-1-yl]hexyl]-1,2,4-oxadiazol-3-yl]-3-pyridyl]-3-(7-cyclohexylpyrazolo[1,5-a]pyrimidin-6-yl)urea] | < 500 nM
≤ 0.2 µM |  |  | O=C1CCC(N2Cc3cc(N4CCN(C(=O)CCCc5nc(-c6ncc(NC(=O)Nc7cnc8ccnn8c7C7CCCCC7)cc6Cl)no5)CC4)ccc3C2=O)C(=O)N1 (stereo not shown) [Compound 120, 1-[5-chloro-6-[5-[4-[4-[2-(2,6-dioxo-3-piperidyl)-1-oxo-isoindolin-5-yl]piperazin-1-yl]-4-oxo-butyl]-1,2,4-oxadiazol-3-yl]-3-pyridyl]-3-(7-cyclohexylpyrazolo[1,5-a]pyrimidin-6-yl)urea] | < 500 nM
≤ 0.2 µM |  |  | Cc1cc(NC(=O)Nc2cnc3ccnn3c2C2CCCCC2)cnc1-c1noc(CCCCCCN2CCN(c3ccc4c(c3)CN(C3CCC(=O)NC3=O)C4=O)CC2)n1 (stereo not shown) [Compound 122, 1-(7-cyclohexylpyrazolo[1,5-a]pyrimidin-6-yl)-3-[6-[5-[6-[4-[2-(2,6-dioxo-3-piperidyl)-1-oxo-isoindolin-5-yl]piperazin-1-yl]hexyl]-1,2,4-oxadiazol-3-yl]-5-methyl-3-pyridyl]urea] | < 500 nM
≤ 0.2 µM |  |  | Cc1cc(NC(=O)Nc2cnc3ccnn3c2C2CCCCC2)cnc1-c1noc(CCCC(=O)Nc2ccc3c(c2)CN(C2CCC(=O)NC2=O)C3=O)n1 (stereo not shown) [Compound 123, 4-[3-[5-[(7-cyclohexylpyrazolo[1,5-a]pyrimidin-6-yl)carbamoylamino]-3-methyl-2-pyridyl]-1,2,4-oxadiazol-5-yl]-N-[2-(2,6-dioxo-3-piperidyl)-1-oxo-isoindolin-5-yl]butanamide] | < 500 nM
≤ 0.2 µM |  |  | Cc1cc(NC(=O)Nc2cnc3ccnn3c2C2CCCCC2)cnc1-c1noc(CCCCC(=O)N2CCN(c3ccc4c(c3)CN(C3CCC(=O)NC3=O)C4=O)CC2)n1 (stereo not shown) [Compound 124, 1-(7-cyclohexylpyrazolo[1,5-a]pyrimidin-6-yl)-3-[6-[5-[5-[4-[2-(2,6-dioxo-3-piperidyl)-1-oxo-isoindolin-5-yl]piperazin-1-yl]-5-oxo-pentyl]-1,2,4-oxadiazol-3-yl]-5-methyl-3-pyridyl]urea] | 1000 to 5000 nM
